{"source": "patent US20070237820A1", "about": "“Pharmaceutical formulations containing a non-steroidal antinflammatory drug and an antiulcerative drug” (Andrx Pharmaceuticals, LLC, priority 2004, published 2007)", "origin": "cited, not measured here", "key": {"[1]": {"settings": "patients on chronic use"}, "[2]": {"settings": "NSAIDs such as diclofenac"}}, "data": [{"smiles": "CN1C(C(=O)Nc2ccccn2)=C(O)c2ccccc2S1(=O)=O", "note": "[piroxicam]", "values": [{"measurement": "patients experiencing gross bleeding and ulceration", "setting": "[1]", "result": "up to 4%"}]}, {"smiles": "O=C(O)Cc1ccccc1Nc1c(Cl)cccc1Cl", "note": "[diclofenac]", "values": [{"measurement": "patients with side effects that require cessation of medication", "setting": "[2]", "result": "about 20%"}]}]}
